The values below come from patent US4664850A, “Novel radioactive steroids” (Roussel Uclaf, priority 1983, dated 1987).

In data set [1] the test system is glucocorticoid receptors of the hippocampus. Put plainly: Dissociation from glucocorticoid receptors of hippocampus cytosol. The data set is classed as binding.
A short description of data set [2]: Stability and metabolism under in vitro incubation conditions. Particulars: for metabolism in vitro in certain tissues: working in vitro, incubation conditions. The data set is classed as in vitro ADME. As for the experimental part:
(§1) (d) At 0° C. and 15° C., product A forms complexes with thymus glucocorticoid receptors which are stable for at least 24 hours. […] For this reason, it permits the total number of glucocorticoid fixation sites to be determined in different physiological conditions.

In data set [3] the target is T1, glucocorticoid receptors of cytosol of rat thymus (Rattus norvegicus, UniProt P06536).
T1 construct: carbon-dextran adsorption
T1 sequence (P06536 1-795): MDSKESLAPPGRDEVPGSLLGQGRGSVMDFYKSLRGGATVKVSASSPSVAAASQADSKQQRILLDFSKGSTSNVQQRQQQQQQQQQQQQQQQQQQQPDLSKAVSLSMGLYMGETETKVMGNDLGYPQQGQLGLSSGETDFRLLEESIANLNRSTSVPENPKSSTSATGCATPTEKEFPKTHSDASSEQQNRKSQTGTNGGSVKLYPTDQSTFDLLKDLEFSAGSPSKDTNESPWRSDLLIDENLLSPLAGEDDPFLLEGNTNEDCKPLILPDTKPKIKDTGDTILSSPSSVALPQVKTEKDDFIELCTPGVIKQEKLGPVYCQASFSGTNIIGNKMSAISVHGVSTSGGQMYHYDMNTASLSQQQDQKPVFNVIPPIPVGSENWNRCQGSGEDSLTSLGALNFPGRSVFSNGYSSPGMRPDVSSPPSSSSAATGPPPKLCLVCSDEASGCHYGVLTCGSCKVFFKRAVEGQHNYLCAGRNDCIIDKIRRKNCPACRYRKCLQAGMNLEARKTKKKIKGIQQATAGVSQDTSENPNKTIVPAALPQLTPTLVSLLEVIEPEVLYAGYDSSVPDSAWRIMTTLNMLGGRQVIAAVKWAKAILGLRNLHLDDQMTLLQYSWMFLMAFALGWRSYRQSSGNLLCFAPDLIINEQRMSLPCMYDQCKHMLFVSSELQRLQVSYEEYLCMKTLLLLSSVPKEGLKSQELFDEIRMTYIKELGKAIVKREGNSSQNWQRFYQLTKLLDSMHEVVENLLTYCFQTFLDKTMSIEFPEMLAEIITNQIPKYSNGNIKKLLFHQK
Put plainly: Fixation on glucocorticoid receptors of rat thymus cytosol (carbon-dextran adsorption). It is filed as binding. How it is done: as §1

The subject of data set [4] is glucocorticoid receptors. Briefly: Selectivity of fixation on steroid receptors. The data set is classed as binding. As to conditions: compared with similar non-radioactive products. The source says:
651-665 (1981)]. Otherwise, other natural or synthetic corticoids which are used for this type of experiment, simultaneously fix on other steroid receptors and particularly on mineralocorticoid receptors. However, during such experiments with non-radioactive 6-methyl-17α-(prop-1-ynyl)-Δ^1,4,6 -androstatriene-11β,17β-diol-3-one, particularly when the tissues […] examined included simultaneously glucocorticoid and mineralocorticoid receptors, it was often necessary to adopt a succession of long and complicated methods.
Because of the radioactivity of the products of formula I, it is much easier to reveal the existence of the glucocorticoid receptors in the tissues of organs when mineralocorticoid receptors are also present, thanks to the use of the usual methods of liaison measurements taking advantage of radioactive products. In addition, what was not possible with a non-radioactive product, such, for example, as determining of the number of sites of fixation of the glucocorticoid receptors, becomes realizable by the use of the products of formula I.

The next data set deals with plasmatic proteins. Put plainly: Specific fixation on plasmatic proteins. The data set is classed as binding. As to conditions: animals or humans.
Data set [5] relates to glucocorticoid receptors. As to conditions: versus other steroid receptors, particularly mineralocorticoid; TEUTSCH et al. 1981; cited from earlier work.
Where [6] appears, read: 0° C. and 15° C., 24 hours, thymus receptor incubation.

“^3 H-corticosterone [reference compound]”: the “shape of dissociation curve” value in data set [1] is listed as “a dissociation curve with two slopes”.

For the compound `C[C@]12CCC(=O)C=C1CC[C@@H]1[C@@H]2[C@@H](O)C[C@@]2(C)[C@H]1CC[C@]2(O)C(=O)CO` [cortisol, reference compound], the “metabolism in vitro in certain tissues” value in data set [2] is on record as “are metabolized in certain tissues”.

Regarding `C[C@]12C[C@H](O)[C@H]3[C@@H](CCC4=CC(=O)CC[C@@]43C)[C@@H]1CC[C@@H]2C(=O)CO` [corticosterone, reference compound], the “metabolism in vitro in certain tissues” value in data set [2] is on record as “are metabolized in certain tissues”.

For `[3H]C([3H])([3H])C1=CC2C(C(O)CC3(C)C2CCC3(O)C#CC)C2(C)C=CC(=O)C=C12` (stereo not drawn) [Product A, 6-methyl-^3 H3-17α-(prop-1-ynyl)-Δ^1,4,6-androstatriene-11β,17β-diol-3-one], the “shape of dissociation curve” value in data set [1] was “a curve with one slope”. Besides, the non-specific fixation entry in data set [3] (0° C. and 15° C., 24 hours) was “only shows a weak non-specific fixation”. Further, the “constant of association (Ka)” value in data set [3] (0° C., rat thymus cytosol, adsorption by carbon-dextran) was ~10^9 M^-1. Also, the “constant of association relative to dexamethazone” value in data set [3] (0° C., rat thymus cytosol, compared with dexamethazone) is “about twice as high as that of dexamethazone”. Moreover, the “stability of complexes with thymus glucocorticoid receptors” value in data set [3] (at 0° C. and 15° C.) is on record as “at least 24 hours”. For the same compound, in data set [3] (incubation at 15° C. for 24 hours), the “replacement of non-radioactive corticosterone and cortisol fixed on glucocorticoid receptors” value was “totally replaces”. Besides, the “shape of dissociation curve” value in data set [3] (thymus) was “a curve with one slope”. Further, the “speed of association (K+1)” value in data set [3] (towards the glucocorticoid receptors) is ~10^6 M^-1 mn^-1. For the same compound, in data set [2] (setting [6]), the loss of tritium entry is listed as “does not show any loss of tritium” and the “metabolism under incubation conditions” value is given as “is not subject to metabolism”. Moreover, the “selective reactivity in respect of the glucocorticoid receptors” value in the data set with glucocorticoid receptors [4] is reported as “the same selective reactivity”. For the same compound, in the data set with plasmatic proteins, the “specific fixation on plasmatic proteins” value was “does not give rise to any specific fixation”.

`CC#CC1(O)CCC2C3C=C(C)C4=CC(=O)C=CC4(C)C3C(O)CC21C` (stereo not drawn) [6-methyl-17α-(prop-1-ynyl)-Δ^1,4,6-androstatriene-11β,17β-diol-3-one]: the “selectivity of fixation on glucocorticoid receptors” value in the data set on glucocorticoid receptors [5] is reported as “fixes selectively on the glucocorticoid receptors”.
